Series [1] can be described thus: Solubility in concentrated stock solution. Format: physicochemical. As to conditions: concentrated stock solution / acidic solutions. From the text: A concentrated stock solution is required to facilitate administration through drinking water.
The subject of series [2] is E. coli cells producing F4 fimbriae. The experiment in a line: Example 4.1: E. coli agglutination test. The following applies: concentrations identical to Example 3.1; OD450 1.5 cells, 5 μL + 5 μL on glass plate. The series is classed as cell-based. As to the method: The effect of three different compositions on E. coli agglutination were tested: (i) lactic acid and acetic acid, (ii) tannic acid, (iii) lactic acid, acetic acid and tannic acid.
A recombinant E. coli strain constitutively expressing F4 fimbriae was washed three times with 0.9% sodium chloride, and cells corresponding to an optical density (OD450) of 1.5 were resuspended in 50 μL of 0.9% sodium chloride.
5 μL of the cell suspension was mixed with 5 μL of either (i) lactic acid and acetic acid, (ii) tannic acid or (iii) lactic acid, acetic acid and tannic acid on the surface of a glass plate.
The concentration of each of these components were identical to those delivered to the pigs in Example 3.1.

The nature of series [3]: Example 1.3: feeding experiments, TLA composition via drinking water, feed free from medical zinc, weight gain and diarrhoea. As to conditions: comparison of AWG ratio with Example 1.2, light diarrhoea environment. Format: in vivo, piglets (day-one weaned). The procedure:
In Example 1.3, a composition comprising [COMPOUND LEFT OUT] lactic acid, [COMPOUND LEFT OUT] acetic acid and tannic acid was administered to piglets in combination with a feed free from medical zinc.
A batch solution was prepared using [COMPOUND LEFT OUT] lactic acid (80% lactic acid, Frederiksen, DK); acetic acid (5%, Organic Vinegar, Netto, DK) and tannic acid (Sigma) corresponding to a content of 10% Tannic acid, 69% lactic acid and 1.4% acetic acid. This composition is hereafter named TLA stock (tannic acid, lactic acid and acetic acid stock).
Two independent one-week feeding experiments were carried out with day-one weaned piglets (Example 1.3.1 and 1.3.2).
The concentrated TLA stock feed additive was prepared and used to mix with the standard setup for drinking water used by the weaned pigs at the farm. The dry feed is as described above.
The feed received by both the test and control groups was free from medical zinc. In each experiment, two test groups were administered the TLA composition in drinking water while two control groups received standard tap water. The total weight of all piglets in each group was measured at the initiation of the experiment (Day 0, “Start total weight”) and after one (Day 7) and two weeks (Day 14) as indicated (“End total weight”). […]
Following one-week administration, the total weight gain of each group was monitored. […]

The record followed here is US20260325469A1, “COMPOSITION FOR ANIMALS” (priority 2023, published 2026).

For the compound albumin-tannate [reference compound], in series [1], the Solubility entry is given as “problems with solubility, resulting in non-homogeneous solutions comprising a precipitate”.
In the case of `O=C(OC[C@H]1O[C@@H](OC(=O)c2cc(O)c(O)c(OC(=O)c3cc(O)c(O)c(O)c3)c2)[C@H](OC(=O)c2cc(O)c(O)c(OC(=O)c3cc(O)c(O)c(O)c3)c2)[C@@H](OC(=O)c2cc(O)c(O)c(OC(=O)c3cc(O)c(O)c(O)c3)c2)[C@@H]1OC(=O)c1cc(O)c(O)c(OC(=O)c2cc(O)c(O)c(O)c2)c1)c1cc(O)c(O)c(OC(=O)c2cc(O)c(O)c(O)c2)c1` [tannic acid, 1,2,3,4,6-penta-O-{3,4-dihydroxy-5-[(3,4,5-trihydroxybenzoyl)oxy]benzoyl}-D-glucopyranose], in series [2], the E. coli agglutination result was “does not show any significant aggregation of the cells”. Moreover, the Solubility result in series [1] is reported as “high solubility in acidic solutions”. Besides, the “Contribution of tannic acid to weight increase” value in series [3] is “additional effect of tannic acid in the increase in weight”.
